Measurements as given in patent US20150231080A1, “PHARMACEUTICAL COMPOSITION COMPRISING AN ATYPICAL ANTIPSYCHOTIC AGENT AND METHOD FOR THE PREPARATION THEREOF” (PHARMATHEN S.A., priority 2012, published 2015).

Key:
[1] = blends, accelerated storage conditions
[2] = fumarate salt, crystalline powder; cited from earlier work

- compatibility with tartaric acid [1]: significant compatibility problems
Structure (SMILES): OCCOCCN1CCN(C2=Nc3ccccc3Sc3ccccc32)CC1 [Quetiapine, 11-[4-[2-(2-hydroxyethoxy)ethyl]-1-piperazinyl]dibenzo[b,f][1,4]thiazepine]
- solubility in water [2]: moderately soluble in water
